Earlier results in US9833455B2, “Preparation and methods of use for ortho-aryl 5-membered heteroaryl-carboxamide containing multi-targeted kinase inhibitors” (Spacefill Enterprises LLC, priority 2011, dated 2017).

What was measured:
Details in all cases: 1 μM, duplicate, without preincubation; cited from earlier work
CDK11 = target: T1, CDK11 (Homo sapiens, UniProt Q9BWU1)
T1 construct: literature Ambit Biosciences

DCAMKL1 = target: T2, DCAMKL1 (Homo sapiens, UniProt O15075)
T2 construct: literature Ambit Biosciences
T2 sequence (O15075 1-740): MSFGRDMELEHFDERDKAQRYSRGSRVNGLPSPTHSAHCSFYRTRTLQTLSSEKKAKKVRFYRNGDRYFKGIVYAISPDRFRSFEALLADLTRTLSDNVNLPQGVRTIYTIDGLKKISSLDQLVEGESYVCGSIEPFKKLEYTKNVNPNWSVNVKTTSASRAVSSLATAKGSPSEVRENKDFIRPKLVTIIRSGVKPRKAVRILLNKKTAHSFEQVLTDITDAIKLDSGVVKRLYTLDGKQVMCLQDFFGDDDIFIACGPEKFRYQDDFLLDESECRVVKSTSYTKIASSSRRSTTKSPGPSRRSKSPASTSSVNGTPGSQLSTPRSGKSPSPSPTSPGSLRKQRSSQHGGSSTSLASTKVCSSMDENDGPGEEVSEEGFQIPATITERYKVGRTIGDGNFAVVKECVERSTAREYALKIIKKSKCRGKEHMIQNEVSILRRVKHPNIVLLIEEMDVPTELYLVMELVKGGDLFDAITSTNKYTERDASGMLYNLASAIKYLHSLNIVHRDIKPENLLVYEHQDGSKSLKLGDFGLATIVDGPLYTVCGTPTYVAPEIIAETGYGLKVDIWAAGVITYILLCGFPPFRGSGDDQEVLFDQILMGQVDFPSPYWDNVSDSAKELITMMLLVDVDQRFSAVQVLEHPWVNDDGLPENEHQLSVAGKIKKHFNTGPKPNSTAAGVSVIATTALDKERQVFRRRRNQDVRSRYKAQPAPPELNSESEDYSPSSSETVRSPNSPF

MKNK1 = target: T3, MKNK1 (Homo sapiens, UniProt Q9BUB5)
T3 construct: literature Ambit Biosciences

p38-beta = target: T4, p38-beta (Homo sapiens, UniProt Q15759)
T4 construct: literature Ambit Biosciences

PDGFRA = target: T5, PDGFRA (Homo sapiens, UniProt P16234)
T5 construct: literature Ambit Biosciences

PDGFRB = target: T6, PDGFRB (Homo sapiens, UniProt P09619)
T6 construct: literature Ambit Biosciences

PIK3CA = target: T7, PIK3CA (Homo sapiens, UniProt P42336)
T7 construct: literature Ambit Biosciences

PLK4 = target: T8, PLK4 (Homo sapiens, UniProt O00444)
T8 construct: literature Ambit Biosciences
T8 sequence (O00444 1-970): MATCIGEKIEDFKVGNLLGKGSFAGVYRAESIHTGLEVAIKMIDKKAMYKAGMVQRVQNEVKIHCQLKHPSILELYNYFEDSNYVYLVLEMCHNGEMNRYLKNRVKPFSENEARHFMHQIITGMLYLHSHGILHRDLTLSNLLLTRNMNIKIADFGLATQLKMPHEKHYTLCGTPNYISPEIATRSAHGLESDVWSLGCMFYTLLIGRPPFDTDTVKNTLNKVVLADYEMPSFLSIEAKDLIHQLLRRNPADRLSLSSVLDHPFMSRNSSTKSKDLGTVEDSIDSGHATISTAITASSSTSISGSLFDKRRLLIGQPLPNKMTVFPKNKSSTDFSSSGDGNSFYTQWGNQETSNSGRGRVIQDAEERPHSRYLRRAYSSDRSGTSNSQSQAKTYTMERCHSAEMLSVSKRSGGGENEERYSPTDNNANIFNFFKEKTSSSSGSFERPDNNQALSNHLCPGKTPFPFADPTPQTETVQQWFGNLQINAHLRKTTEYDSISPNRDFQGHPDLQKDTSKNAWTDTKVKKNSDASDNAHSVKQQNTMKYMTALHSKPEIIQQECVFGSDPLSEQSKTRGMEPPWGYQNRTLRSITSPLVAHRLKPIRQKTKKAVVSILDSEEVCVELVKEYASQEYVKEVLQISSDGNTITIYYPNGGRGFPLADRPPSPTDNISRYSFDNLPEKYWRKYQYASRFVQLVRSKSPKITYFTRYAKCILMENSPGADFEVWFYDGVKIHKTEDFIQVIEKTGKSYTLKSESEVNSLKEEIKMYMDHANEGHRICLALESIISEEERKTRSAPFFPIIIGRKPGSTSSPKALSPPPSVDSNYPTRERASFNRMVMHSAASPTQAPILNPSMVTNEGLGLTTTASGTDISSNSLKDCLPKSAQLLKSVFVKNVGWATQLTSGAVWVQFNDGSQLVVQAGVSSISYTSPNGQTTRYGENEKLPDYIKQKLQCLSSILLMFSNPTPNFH

PRKCE = target: T9, PRKCE (Homo sapiens, UniProt Q02156)
T9 construct: literature Ambit Biosciences
T9 sequence (Q02156 1-737): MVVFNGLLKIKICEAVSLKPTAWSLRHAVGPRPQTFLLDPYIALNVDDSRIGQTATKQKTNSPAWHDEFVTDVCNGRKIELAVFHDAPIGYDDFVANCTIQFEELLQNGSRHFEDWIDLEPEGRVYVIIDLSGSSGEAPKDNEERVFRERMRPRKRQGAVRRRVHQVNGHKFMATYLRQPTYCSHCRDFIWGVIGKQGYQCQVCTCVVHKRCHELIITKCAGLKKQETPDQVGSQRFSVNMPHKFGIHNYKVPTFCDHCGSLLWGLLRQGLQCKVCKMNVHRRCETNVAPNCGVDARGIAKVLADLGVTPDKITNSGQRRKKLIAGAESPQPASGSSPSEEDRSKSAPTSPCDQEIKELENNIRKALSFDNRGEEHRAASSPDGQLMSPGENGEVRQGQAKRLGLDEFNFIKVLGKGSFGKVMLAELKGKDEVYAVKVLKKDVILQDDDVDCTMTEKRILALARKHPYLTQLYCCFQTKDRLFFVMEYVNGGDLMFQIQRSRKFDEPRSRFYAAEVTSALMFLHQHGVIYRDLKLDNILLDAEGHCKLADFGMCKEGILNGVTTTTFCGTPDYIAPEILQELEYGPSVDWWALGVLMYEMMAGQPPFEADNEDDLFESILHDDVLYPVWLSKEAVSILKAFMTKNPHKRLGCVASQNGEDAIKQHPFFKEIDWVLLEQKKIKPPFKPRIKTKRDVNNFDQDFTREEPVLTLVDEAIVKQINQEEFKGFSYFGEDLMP

RAF1 = target: T10, RAF1 (Homo sapiens, UniProt P04049)
T10 construct: literature Ambit Biosciences

TYK2 (catalytic) = target: T11, TYK2 (catalytic) (Homo sapiens, UniProt P29597)
T11 construct: catalytic; literature Ambit Biosciences
T11 sequence (P29597 897-1176 limits assumed): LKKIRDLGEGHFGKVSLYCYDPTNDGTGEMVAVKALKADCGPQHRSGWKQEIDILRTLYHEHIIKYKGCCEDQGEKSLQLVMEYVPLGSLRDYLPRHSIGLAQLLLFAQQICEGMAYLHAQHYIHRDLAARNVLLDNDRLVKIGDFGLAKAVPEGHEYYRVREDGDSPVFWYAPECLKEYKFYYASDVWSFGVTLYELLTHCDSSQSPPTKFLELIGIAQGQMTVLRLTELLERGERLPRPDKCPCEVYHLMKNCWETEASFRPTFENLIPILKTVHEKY

T1 sequence (Q9BWU1 whole entry): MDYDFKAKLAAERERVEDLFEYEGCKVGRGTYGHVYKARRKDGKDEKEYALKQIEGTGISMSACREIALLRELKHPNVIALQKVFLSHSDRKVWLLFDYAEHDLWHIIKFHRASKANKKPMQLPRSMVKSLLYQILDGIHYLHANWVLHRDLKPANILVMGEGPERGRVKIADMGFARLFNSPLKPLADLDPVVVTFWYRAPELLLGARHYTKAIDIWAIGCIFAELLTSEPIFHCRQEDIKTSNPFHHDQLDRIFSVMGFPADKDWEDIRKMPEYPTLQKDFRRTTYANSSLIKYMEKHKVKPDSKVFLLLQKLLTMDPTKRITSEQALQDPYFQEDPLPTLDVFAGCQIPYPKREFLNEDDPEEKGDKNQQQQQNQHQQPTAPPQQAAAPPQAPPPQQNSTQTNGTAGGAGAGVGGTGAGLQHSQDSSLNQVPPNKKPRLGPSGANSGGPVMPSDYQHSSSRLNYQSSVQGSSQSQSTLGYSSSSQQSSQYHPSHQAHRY
T4 sequence (Q15759 whole entry): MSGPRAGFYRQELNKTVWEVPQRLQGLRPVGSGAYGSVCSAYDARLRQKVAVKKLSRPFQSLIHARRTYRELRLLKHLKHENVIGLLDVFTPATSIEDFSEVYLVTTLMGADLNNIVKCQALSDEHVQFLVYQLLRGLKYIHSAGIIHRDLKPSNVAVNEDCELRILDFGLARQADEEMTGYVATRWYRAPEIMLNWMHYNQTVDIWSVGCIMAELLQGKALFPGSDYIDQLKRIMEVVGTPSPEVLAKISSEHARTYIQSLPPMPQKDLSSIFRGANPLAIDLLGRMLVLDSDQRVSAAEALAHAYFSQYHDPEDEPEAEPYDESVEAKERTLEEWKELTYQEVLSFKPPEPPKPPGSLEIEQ
T3 sequence (Q9BUB5 whole entry): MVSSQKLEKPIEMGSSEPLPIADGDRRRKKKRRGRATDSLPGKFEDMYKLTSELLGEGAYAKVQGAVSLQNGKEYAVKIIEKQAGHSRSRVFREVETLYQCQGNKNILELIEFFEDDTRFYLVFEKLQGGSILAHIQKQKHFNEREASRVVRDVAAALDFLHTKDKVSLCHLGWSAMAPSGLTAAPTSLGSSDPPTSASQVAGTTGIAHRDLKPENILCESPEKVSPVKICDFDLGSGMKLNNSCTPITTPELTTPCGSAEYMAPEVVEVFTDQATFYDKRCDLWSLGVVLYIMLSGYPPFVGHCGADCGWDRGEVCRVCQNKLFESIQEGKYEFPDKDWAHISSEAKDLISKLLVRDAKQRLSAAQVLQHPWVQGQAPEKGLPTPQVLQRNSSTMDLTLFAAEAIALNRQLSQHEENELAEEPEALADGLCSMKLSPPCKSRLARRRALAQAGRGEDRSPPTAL
T7 sequence (P42336 whole entry): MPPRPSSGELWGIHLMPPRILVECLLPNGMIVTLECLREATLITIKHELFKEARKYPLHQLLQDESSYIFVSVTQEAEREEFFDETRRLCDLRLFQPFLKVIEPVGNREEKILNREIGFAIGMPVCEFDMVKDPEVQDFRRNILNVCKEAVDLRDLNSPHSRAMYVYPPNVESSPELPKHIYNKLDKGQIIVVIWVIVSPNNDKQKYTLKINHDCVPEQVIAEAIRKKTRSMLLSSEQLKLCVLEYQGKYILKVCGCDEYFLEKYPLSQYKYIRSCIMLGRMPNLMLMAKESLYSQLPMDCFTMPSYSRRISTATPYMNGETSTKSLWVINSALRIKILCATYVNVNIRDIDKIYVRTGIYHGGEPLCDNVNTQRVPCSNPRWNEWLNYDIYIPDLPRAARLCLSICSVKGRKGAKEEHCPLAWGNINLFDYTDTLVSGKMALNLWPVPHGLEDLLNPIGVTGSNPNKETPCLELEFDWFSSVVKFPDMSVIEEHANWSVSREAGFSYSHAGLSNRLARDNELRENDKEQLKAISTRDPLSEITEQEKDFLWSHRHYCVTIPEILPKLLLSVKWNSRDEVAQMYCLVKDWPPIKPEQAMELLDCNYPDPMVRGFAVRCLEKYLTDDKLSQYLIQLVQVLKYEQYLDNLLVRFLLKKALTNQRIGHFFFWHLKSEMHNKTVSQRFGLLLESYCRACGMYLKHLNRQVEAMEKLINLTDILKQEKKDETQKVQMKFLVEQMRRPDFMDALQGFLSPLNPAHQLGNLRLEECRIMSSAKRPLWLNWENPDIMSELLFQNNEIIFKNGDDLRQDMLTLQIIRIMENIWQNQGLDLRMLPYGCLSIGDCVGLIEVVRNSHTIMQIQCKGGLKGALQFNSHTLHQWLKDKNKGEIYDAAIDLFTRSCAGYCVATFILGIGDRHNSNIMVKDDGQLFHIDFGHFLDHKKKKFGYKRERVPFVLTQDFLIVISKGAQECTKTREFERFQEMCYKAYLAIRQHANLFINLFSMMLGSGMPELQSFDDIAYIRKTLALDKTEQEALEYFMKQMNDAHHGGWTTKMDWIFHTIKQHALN
T6 sequence (P09619 33-1106): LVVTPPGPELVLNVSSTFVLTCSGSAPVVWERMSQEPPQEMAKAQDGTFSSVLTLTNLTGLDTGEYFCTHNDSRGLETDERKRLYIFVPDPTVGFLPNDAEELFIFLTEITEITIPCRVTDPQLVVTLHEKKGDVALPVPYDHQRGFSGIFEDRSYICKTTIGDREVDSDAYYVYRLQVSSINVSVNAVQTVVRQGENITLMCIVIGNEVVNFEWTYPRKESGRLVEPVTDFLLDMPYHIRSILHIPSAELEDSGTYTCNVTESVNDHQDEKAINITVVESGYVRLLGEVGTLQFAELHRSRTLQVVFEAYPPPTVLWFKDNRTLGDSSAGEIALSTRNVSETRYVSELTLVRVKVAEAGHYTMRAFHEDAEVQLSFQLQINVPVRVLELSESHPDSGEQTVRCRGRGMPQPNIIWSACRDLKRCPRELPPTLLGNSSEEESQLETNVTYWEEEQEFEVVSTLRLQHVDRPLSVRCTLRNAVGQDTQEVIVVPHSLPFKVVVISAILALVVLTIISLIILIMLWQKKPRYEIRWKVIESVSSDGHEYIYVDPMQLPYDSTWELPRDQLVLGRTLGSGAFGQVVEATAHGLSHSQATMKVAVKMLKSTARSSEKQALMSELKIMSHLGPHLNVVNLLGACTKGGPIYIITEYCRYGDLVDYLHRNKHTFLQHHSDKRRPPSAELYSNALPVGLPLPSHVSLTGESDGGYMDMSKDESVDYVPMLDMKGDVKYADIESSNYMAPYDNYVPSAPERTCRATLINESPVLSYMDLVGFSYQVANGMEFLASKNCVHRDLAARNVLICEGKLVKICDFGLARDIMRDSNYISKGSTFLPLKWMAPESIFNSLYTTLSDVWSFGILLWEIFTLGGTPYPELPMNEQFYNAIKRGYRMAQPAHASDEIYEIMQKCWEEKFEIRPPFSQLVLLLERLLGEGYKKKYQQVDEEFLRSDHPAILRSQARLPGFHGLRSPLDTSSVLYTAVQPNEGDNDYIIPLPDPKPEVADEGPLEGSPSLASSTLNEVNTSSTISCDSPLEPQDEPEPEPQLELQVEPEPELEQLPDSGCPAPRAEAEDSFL
T10 sequence (P04049 whole entry): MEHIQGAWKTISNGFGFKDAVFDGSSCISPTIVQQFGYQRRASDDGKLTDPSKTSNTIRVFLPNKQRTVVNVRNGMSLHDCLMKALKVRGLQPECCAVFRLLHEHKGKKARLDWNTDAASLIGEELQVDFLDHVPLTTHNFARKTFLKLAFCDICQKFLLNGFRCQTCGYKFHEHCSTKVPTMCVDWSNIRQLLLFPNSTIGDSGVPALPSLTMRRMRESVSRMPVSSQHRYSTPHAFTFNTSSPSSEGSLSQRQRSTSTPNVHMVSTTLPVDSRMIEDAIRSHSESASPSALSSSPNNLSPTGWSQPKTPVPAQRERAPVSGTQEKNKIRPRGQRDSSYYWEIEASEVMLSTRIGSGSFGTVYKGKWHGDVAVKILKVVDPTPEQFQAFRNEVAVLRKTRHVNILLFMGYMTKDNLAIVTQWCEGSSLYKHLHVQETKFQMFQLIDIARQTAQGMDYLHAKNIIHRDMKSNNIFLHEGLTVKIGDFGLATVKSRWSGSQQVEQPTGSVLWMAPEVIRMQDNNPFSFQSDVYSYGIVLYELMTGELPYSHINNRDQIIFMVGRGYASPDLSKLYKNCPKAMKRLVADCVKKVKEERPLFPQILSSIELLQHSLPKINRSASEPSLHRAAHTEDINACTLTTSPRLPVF

Row | SMILES | inhibition of CDK11 (CDK11) | inhibition of DCAMKL1 (DCAMKL1) | inhibition of MKNK1 (MKNK1) | inhibition of p38-beta (p38-beta) | inhibition of PDGFRA (PDGFRA) | inhibition of PDGFRB (PDGFRB) | inhibition of PIK3CA (PIK3CA) | inhibition of PLK4 (PLK4) | inhibition of PRKCE (PRKCE) | inhibition of RAF1 (RAF1) | inhibition of TYK2 (catalytic) (TYK2 (catalytic))
1 | Cc1ccc(NC(=O)c2[nH]c(C(F)(F)F)nc2-c2ccc(F)cc2)cc1Nc1ccc2ncn(C)c(=O)c2c1 [KIN-035] | XX (XX > 50% @ 1 μM) | X (X > 25% @ 1 μM) | XX (XX > 50% @ 1 μM) | X (X > 25% @ 1 μM) | XX (XX > 50% @ 1 μM) | XXX (XXX > 75% @ 1 μM) | X (X > 25% @ 1 μM) | X (X > 25% @ 1 μM) | X (X > 25% @ 1 μM) | XXXX (XXXX > 90% @ 1 μM) | X (X > 25% @ 1 μM)
2 | Cc1ccc(-c2nc(C(F)(F)F)[nH]c2C(=O)Nc2ccc(C)c(Nc3ccc4ncn(C)c(=O)c4c3)c2)cc1F [KIN-038] | X (X > 25% @ 1 μM) | X (X > 25% @ 1 μM) | X (X > 25% @ 1 μM) | X (X > 25% @ 1 μM) | XX (XX > 50% @ 1 μM) | XX (XX > 50% @ 1 μM) | X (X > 25% @ 1 μM) | X (X > 25% @ 1 μM) | X (X > 25% @ 1 μM) | XXXX (XXXX > 90% @ 1 μM) | X (X > 25% @ 1 μM)
